The values below come from paper PMC7998669, “7-(2-Anilinopyrimidin-4-yl)-1-benzazepin-2-ones Designed by a “Cut and Glue” Strategy Are Dual Aurora A/VEGF-R Kinase Inhibitors” (Molecules, 2021).

For one data set, the target named is Aurora A. The arrangement: method as in PMID 27406026. As to conditions: cited from earlier work.
A further data set deals with T1, Aurora-B (Homo sapiens, UniProt Q96GD4).
T1 construct: host or cells: Sf9 (baculovirus)
In words: radiometric 33PanQinase protein kinase assay. The class given is biochemical. As to conditions: radiometric assay, 1 µM ATP. Here is the method: (§1) The inhibitory activity of prototype 2a was determined in a panel of 24 tumor-relevant protein kinases using a radiometric assay. Only the kinases Aurora A, VEGF-R2 and VEGF-R3 were inhibited with single digit micromolar IC50 values (Table 2). Structural modifications were then implemented, particularly directed to improve inhibition of Aurora A. The so-designed congeners with small substituents at the aniline ring 2b–2n were examined for inhibition of Aurora A and of VEGF-R2, VEGF-R3 and Aurora B for comparison (Table 3).
(§2) The screening for protein kinase inhibition was performed with the radiometric ^33Panqinase activity assay at Reaction Biology Europe GmbH (Freiburg) using a robotic system (Beckmann Coulter/SagianRoboter) and 96-well plates (FlashPlates, Perkin/Elmer/NEN, Boston, MA, USA). In brief, the transfer of ^33P-phosphate into the substrate was measured with a microplate scintillation counter (Microbeta Trilux, Wallace). Protein kinases were expressed in Sf9 cells as recombinant glutathione S-transferase (GST) or polyhistidine (His)-tagged proteins in baculovirus. Isolation and purification of expressed kinases were performed with affinity chromatography by using GSH agarose (Sigma) or Ni-NTA agarose (Qiagen). The standard solution for each enzyme contained: 60 mM HEPES-NaOH (pH 7.5), 3 mM MgCl2, 3 µM sodium orthovanadate, 1.2 mM DTT, 50 µg/mL PEG20000 and 1 µM [γ-^33P]-ATP (approximately 5 × 10^5 cpm per well). In chronological order the reaction mixture was prepared: 20 µL standard solution, 5 µL ATP solution in water, 5 µL of the compound in 10% DMSO and 20 µL of enzyme/substrate mixture (50:50). Each kinase contained different substrates in different concentrations: 125 ng/50 µL Poly(Glu, Tyr)4:1 for 20 ng/50 µL IGF1-R, 25 ng/50 µL IGF1-R, 20 ng/50 µL EGF-R, 25 ng/50 µL EGF-R, 40 ng/50 µL EGF-R, 10 ng/50 µL EPHB4, 20 ng/50 µL EPHB4, 200 ng/50 µL ERBB2, 10 ng/50 µL SRC, 100 ng/50 µL FAK, 200 ng/50 µL FAK, 50 ng/50 µL VEGF-R2, 100 ng/50 µL VEGF-R3, 200 ng/50 µLTIE2; 250 ng/50 µL Poly(Glu, Tyr)4:1 for 200 ng/50 µL TIE2; 500 ng/50 µL tetra (LRRWSLG) for 50 ng/50 µL Aurora-A, 25 ng/50 µL PAK4, 25 ng/50 µL PDK1; 250 ng/50 µL tetra (LRRWSLG) for 50 ng/50 µL Aurora-B, 200 ng/50 µL Aurora-B; 125 ng/50 µL Histon H1 for 100 ng/50 µL CDK2/CycA; 250 ng/50 µL Rb-CTF for 50 ng/50 µL CDK/CycD1; 500 ng/50 µL Rb-CTF for 50 ng/50 µL CDK4/CycD1; 125 ng/50 µL Poly(ala, Glu, Lys, Tyr)6:2:5:1 for 25 ng/50 µL INS-R, 50 ng/50 µL PDGFR-beta, 100 ng/50 µL PDGFR-beta, 100 ng/50 µL FLT3, 150 ng/50 µL FLT3, 20 ng/50 µL MET, 50 ng/50 µL MET, 100 ng/50 µL MET; 250 ng/50 µL Casein for 200 ng/50 µL CK2-alpha1, 200 ng/50 µL PLK1; 1000 ng/50 µL Casein for 200 ng/50 µL PLK1, 200 ng/50 µL CK2-alpha1; 1000 ng/50 µLGSK3 (14–27) for 100 ng/50 µL AKT1; 125 ng/50 µL p53-CTM for 150 ng/50 µL CK2-alpha1, 200 ng/50 µLCK2-alpha1; 250 ng/50 µL MEK-KM for 20 ng/50 µL B-RAF-VE; autophosphorylation at ARK5, COT and SAK. After incubation (80 min, 30 °C) the reaction was stopped by adding 50 µL 2% (v/v) phosphoric acid to the reaction mixture. The microplate was washed twice with 200 µL 0.9% (v/v) saturated sodium chloride or water. The measured radioactivity, conditioned by the incorporation of [γ-^33P]-phosphate, is proportional to kinase activity. Furthermore, low control and high control were measured to determine the residual activity (%). As low controls, mixtures with substrate, but without enzyme were used to determine the unspecific binding of [γ-^33P]-phosphate to the well plate. Mixtures with enzyme, but without inhibitor were used as high controls to determine maximum enzyme activity. The IC50-values of the distinct compounds were calculated with Quattro Workflow V1.1.0.8 (Quattro Research GmbH, München, Germany). Dose response curves were generated by measurement of the residual activity of ten different inhibitor concentrations (0.1 mM, 30.0 µM, 10 µM, 3.0 µM, 1.0 µM, 0.3 µM, 0.1 µM, 30.0 nM, 10.0 nM and 3.0 nM). […]

The target in a further data set is T2, VEGF-R3 (Homo sapiens, UniProt P35916).
T2 construct: host or cells: Sf9 (baculovirus)
In words: radiometric 33PanQinase protein kinase assay. It counts as biochemical. The note with it: radiometric assay, 1 µM ATP. Here is the method:
as §1, §2

The target in the next data set is T3, VEGF-R2 (Homo sapiens, UniProt P35968).
T3 construct: host or cells: Sf9 (baculovirus)
In words: radiometric 33PanQinase protein kinase assay. The class given is biochemical. The note with it: radiometric assay, 1 µM ATP. Here is the method:
as §1, §2

The target of another data set is T4, Aurora-A (Homo sapiens, UniProt O14965).
T4 construct: host or cells: Sf9 (baculovirus)
T4 sequence (O14965 1-403): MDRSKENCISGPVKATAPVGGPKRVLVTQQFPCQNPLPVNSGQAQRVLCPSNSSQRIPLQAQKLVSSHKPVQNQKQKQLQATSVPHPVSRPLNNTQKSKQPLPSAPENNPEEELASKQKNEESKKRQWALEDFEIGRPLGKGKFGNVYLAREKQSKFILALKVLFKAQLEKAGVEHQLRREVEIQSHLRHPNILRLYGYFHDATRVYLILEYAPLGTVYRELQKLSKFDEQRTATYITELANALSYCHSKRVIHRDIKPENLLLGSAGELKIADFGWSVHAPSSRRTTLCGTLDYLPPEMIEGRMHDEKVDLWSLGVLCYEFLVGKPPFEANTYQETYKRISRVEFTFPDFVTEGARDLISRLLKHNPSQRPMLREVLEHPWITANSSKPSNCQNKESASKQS
Nature of the data set: radiometric 33PanQinase protein kinase assay. The note with it: radiometric assay, 1 µM ATP. It counts as biochemical. Here is the method:
as §1, §2

Data set [1] is described as follows: kinetic solubility by nephelometry. As to conditions: phosphate buffer, 25 °C, pH 7.4, aqueous buffer, kinetic from dmso stock, phosphate buffer pH 7.4, 1% DMSO, mean of two measurements, range in brackets. The class given is physicochemical. The protocol:
The kinetic solubility of test compounds was determined by nephelometry. Dilution series of test compounds in DMSO with eight to ten different concentrations were prepared. The dilutions were pipetted (2 µL) into the cavities of a 96 well plate (CorningTM UV-transparent flat-bottom microtiter plate; Corning Incorporated, Kennebunk, ME, USA). A phosphate buffer solution pH 7.4 (198 µL) was added, so that the DMSO concentration in the measured solutions was 1%. Three wells were filled with DMSO and phosphate buffer pH 7.4 (2:198) and measured as blank values. The 96 well plate prepared in this way was measured with the NEPHELOstar® Plus nephelometer (BMG Labtech GmbH, Ortenberg, Germany, software: Omega 5.11) at a temperature of 25 °C. Previously, the plate was shaken at 500 rpm for 10 s and the laser intensity was set to 80%. The beam focus was set to 2.50 mm. If the test substance is completely soluble, only a scattering close to the blank value is detected. As soon as a critical concentration is reached in which the kinetic solubility of the test compound is exceeded, solid particles precipitate. Undissolved particles in the sample scatter the laser beam. The intensity of the scattered light is determined, which is proportional to the number of particles in the solution. The blank values were determined and subtracted from the measured values of the test compounds. By measuring different concentrations of the test substances, different intensities of the scattered light, indicated as RNU (relative nephelometric units), were determined. Kick off curves were obtained by plotting concentrations against the RNU values. The point of intersection of the horizontal and of the ascending part of the kick-off curve indicated the kinetic solubility concentration.

pIC50, pKi: −log10 of the molar value. Values after ≈ are worked out from the molar mass of the structure shown.

Regarding `Cc1nc(N)sc1-c1ccnc(Nc2ccc(N3CCOCC3)cc2)n1` [CYC116], at Aurora A, the pKi was […].

T3 sequence (P35968 20-1356): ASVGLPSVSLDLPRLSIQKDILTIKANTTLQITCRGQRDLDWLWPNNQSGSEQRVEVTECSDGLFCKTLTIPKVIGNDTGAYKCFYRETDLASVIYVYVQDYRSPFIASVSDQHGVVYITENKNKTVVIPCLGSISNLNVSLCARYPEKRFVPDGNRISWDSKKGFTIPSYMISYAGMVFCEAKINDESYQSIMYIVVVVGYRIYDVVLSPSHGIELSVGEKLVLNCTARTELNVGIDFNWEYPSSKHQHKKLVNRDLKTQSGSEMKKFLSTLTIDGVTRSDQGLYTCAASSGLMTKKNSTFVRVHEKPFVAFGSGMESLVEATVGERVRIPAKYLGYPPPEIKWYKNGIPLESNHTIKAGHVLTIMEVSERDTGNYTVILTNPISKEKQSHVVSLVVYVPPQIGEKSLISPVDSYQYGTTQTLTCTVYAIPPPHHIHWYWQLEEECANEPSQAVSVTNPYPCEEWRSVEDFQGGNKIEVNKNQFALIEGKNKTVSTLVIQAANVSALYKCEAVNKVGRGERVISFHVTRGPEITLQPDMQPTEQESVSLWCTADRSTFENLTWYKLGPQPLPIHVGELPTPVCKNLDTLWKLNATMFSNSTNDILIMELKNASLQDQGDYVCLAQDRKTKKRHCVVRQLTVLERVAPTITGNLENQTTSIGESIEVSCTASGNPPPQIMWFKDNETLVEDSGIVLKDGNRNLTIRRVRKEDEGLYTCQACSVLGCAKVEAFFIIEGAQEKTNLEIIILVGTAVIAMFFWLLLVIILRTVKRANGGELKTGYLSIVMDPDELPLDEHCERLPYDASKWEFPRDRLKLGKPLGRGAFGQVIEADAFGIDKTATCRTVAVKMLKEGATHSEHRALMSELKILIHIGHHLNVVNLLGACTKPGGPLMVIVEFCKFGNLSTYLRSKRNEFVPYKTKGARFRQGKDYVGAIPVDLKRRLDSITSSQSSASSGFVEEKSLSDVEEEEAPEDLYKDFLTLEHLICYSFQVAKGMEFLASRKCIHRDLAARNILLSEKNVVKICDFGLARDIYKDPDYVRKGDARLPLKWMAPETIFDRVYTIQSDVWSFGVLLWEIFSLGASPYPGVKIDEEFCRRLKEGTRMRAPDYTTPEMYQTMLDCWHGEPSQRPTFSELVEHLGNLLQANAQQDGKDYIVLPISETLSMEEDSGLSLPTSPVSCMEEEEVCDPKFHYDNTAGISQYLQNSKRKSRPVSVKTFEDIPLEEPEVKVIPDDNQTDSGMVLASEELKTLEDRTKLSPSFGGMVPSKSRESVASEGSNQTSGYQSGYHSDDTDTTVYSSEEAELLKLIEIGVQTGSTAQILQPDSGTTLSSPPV
T2 sequence (P35916 25-1363): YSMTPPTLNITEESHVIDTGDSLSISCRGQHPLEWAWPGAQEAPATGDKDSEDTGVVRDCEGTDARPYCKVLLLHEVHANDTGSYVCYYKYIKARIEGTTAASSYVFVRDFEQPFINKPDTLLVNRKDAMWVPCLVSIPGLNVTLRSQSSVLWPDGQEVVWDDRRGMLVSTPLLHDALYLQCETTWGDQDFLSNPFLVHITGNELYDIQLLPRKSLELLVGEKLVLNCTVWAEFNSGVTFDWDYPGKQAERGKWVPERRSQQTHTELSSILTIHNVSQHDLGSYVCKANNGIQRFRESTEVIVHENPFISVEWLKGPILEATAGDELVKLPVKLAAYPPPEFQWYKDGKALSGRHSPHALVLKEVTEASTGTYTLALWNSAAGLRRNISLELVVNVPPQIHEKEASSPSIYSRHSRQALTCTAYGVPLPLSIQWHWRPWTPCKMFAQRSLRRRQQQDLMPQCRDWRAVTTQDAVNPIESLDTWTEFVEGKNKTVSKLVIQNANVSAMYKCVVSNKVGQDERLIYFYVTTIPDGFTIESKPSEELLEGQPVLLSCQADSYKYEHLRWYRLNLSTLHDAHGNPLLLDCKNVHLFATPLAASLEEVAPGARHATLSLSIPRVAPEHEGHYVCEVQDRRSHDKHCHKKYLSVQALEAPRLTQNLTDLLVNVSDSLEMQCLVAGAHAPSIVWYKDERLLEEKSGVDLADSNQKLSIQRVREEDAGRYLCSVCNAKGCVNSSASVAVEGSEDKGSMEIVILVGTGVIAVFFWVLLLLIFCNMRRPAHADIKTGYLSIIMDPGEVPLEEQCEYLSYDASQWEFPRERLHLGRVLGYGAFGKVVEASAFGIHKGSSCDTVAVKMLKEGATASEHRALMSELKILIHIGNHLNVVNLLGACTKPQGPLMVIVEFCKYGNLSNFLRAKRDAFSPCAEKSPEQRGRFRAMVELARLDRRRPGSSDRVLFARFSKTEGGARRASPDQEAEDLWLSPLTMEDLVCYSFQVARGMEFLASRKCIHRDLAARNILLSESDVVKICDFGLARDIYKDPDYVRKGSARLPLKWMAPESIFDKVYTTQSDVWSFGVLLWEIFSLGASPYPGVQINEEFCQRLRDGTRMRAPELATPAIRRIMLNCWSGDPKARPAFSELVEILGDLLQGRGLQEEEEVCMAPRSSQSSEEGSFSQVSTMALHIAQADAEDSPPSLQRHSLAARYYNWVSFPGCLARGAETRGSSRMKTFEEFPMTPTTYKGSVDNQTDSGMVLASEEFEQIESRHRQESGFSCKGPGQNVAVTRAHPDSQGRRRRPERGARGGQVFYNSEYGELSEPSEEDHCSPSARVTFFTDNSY
T1 sequence (Q96GD4 whole entry): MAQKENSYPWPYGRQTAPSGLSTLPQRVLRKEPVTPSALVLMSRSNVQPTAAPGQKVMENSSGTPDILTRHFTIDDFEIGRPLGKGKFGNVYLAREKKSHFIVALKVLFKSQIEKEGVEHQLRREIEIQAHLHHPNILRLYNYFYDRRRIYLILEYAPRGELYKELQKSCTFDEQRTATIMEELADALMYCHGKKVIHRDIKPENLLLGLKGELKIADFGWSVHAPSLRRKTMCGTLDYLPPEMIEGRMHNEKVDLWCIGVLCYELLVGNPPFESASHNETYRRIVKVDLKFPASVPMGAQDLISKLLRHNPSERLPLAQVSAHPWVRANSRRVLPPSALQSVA

Regarding `O=C1CCCc2cc(-c3ccnc(Nc4cccc(O)c4)n3)ccc2N1` [Compound 2m, 7-[2-(3-Hydroxyanilino)pyrimidin-4-yl]-1,3,4,5-tetrahydro-2H-1-benzazepin-2-one], the negative-log IC50 (pIC50) is 5.17 against Aurora-B, 6.27 on VEGF-R3, 6.11 on VEGF-R2 and 5.77 against Aurora-A. The compound further gave a solubility (kinetic) at 10 s in data set [1] of 112 µM (≈ 38.8 µg/mL).

On Aurora-A, `O=C1CCCc2cc(-c3ccnc(Nc4cccc(OCCCNS(=O)(=O)N5CCCC5)c4)n3)ccc2N1` [Compound 14c, N-{3-[3-((4-(2-Oxo-2,3,4,5-tetrahydro-1H-benzo[b]azepin-7-yl)pyrimidin-2-yl)amino)phenoxy]propyl}-pyrrolidine-1-sulfonamide] had a negative logarithm of the IC50 (pIC50) of 5.35. In addition, in data set [1], the kinetic solubility at 10 s turned out to be 25.3 µM (≈ 13.6 µg/mL).

The compound `O=C1CCCc2cc(-c3ccnc(Nc4cccc(OCCCNS(=O)(=O)N5CCC5)c4)n3)ccc2N1` [Compound 14d, N-{3-[3-((4-(2-Oxo-2,3,4,5-tetrahydro-1H-benzo[b]azepin-7-yl)pyrimidin-2-yl)amino)phenoxy]propyl}-azetidine-1-sulfonamide] had a pIC50 at Aurora-A of 5.82. In data set [1], this compound had a solubility (kinetic) at 10 s of 25.2 µM (≈ 13.2 µg/mL).

As to `COc1ccc(Nc2nccc(-c3ccc4c(c3)CCCC(=O)N4)n2)cc1OCCCN1CCN(C)S1(=O)=O` [Compound 14e, 7-(2-((4-Methoxy-3-(3-(5-methyl-1,1-dioxido-1,2,5-thiadiazolidin-2-yl)propoxy)phenyl)amino)pyrimidin-4-yl)-1,3,4,5-tetrahydro-2H-benzo[b]azepin-2-one], the pIC50 against Aurora-A was 5.96. The compound further gave a kinetic solubility at 10 s in data set [1] of 21.4 µM (≈ 11.8 µg/mL).

At Aurora-A, `COc1ccc(Nc2nccc(-c3ccc4c(c3)CCCC(=O)N4)n2)cc1OCCCNS(=O)(=O)N1CCOCC1` [Compound 14f, N-{3-[2-Methoxy-5-((4-(2-oxo-2,3,4,5-tetrahydro-1H-benzo[b]azepin-7-yl)pyrimidin-2-yl)amino)phenoxy]-propyl}morpholine-4-sulfonamide] showed a pIC50 of 5.60. The same compound showed a kinetic solubility at 10 s in data set [1] of 25 µM (≈ 14.6 µg/mL).

The compound `COc1ccc(Nc2nccc(-c3ccc4c(c3)CCCC(=O)N4)n2)cc1OCCCNS(=O)(=O)N1CCC1` [Compound 14g, N-{3-[2-Methoxy-5-((4-(2-oxo-2,3,4,5-tetrahydro-1H-benzo[b]azepin-7-yl)pyrimidin-2-yl)amino)phenoxy]-propyl}azetidine-1-sulfonamide] showed a pIC50 on Aurora-A of 6.09. Besides, the solubility (kinetic) at 10 s in data set [1] was determined as 34.2 µM (≈ 18.9 µg/mL).

Consider `O=C(O)c1ccc(Nc2ncc3c(n2)-c2ccc(Cl)cc2C(c2c(F)cccc2F)=NC3)cc1` [MLN8054], for which the pIC50 in the data set with Aurora A is […].

For `CC(=O)NCC(=O)N1C2CCC1c1cc(Nc3ncc(C(F)(F)F)c(NC4CCC4)n3)ccc12` (stereo not shown) [PF-03814735], the pIC50 in the data set with Aurora A was […].

In the case of `COc1cc(Nc2ncc3c(n2)-c2ccc(Cl)cc2C(c2c(F)cccc2OC)=NC3)ccc1C(=O)O` [alisertib], in the data set on Aurora A, the pIC50 was 8.92.
